Active and inactive are the calls of the source. No cut-off for these calls is given here.
Assays:
BGC-823 [1] = assay: Growth inhibition of human BGC823 cells at 5 uM after 72 hrs by MTT assay relative to control; assay type: functional; settings: BGC-823, 72 h, read-out: GI
BGC-823 [2] = assay: Growth inhibition of human BGC823 cells at 10 uM after 72 hrs by MTT assay relative to control; assay type: functional; settings: BGC-823, 72 h, read-out: GI
BGC-823 [3] = assay: Growth inhibition of human BGC823 cells at 50 uM after 72 hrs by MTT assay relative to control; assay type: functional; settings: BGC-823, 72 h, read-out: GI
BGC-823 [4] = assay: Growth inhibition of human BGC823 cells at 100 uM after 72 hrs by MTT assay relative to control; assay type: functional; settings: BGC-823, 72 h, read-out: GI
BGC-823 [5] = assay: Induction of apoptosis in human BGC823 cells assessed as increase in DNA fragmentation at 100 uM after 48 hrs; assay type: functional, cell-based
BGC-823 [6] = assay: Induction of apoptotic bodies in human BGC823 cells at 50 uM after 48 hrs; assay type: functional, cell-based
BGC-823 [7] = assay: Effect on cell morphology in human BGC823 cells assessed as chromosomal condensations at 50 uM; assay type: functional, cell-based
BGC-823 [8] = assay: Induction of apoptosis in human BGC823 cells assessed as increase in DNA fragmentation at 50 uM after 48 hrs; assay type: functional, cell-based
BGC-823 [9] = assay: Induction of apoptosis in human BGC823 cells at 100 uM after 12 hrs by flow cytometry; assay type: functional
BGC-823 [10] = assay: Induction of apoptosis in human BGC823 cells at 100 uM after 24 hrs by flow cytometry; assay type: functional
BGC-823 [11] = assay: Induction of apoptosis in human BGC823 cells at 100 uM after 36 hrs by flow cytometry; assay type: functional
BGC-823 [12] = assay: Induction of apoptosis in human BGC823 cells at 100 uM after 48 hrs by flow cytometry; assay type: functional
BGC-823 [13] = assay: Induction of apoptosis in human BGC823 cells at 20 uM after 12 hrs by flow cytometry; assay type: functional
BGC-823 [14] = assay: Induction of apoptosis in human BGC823 cells at 20 uM after 24 hrs by flow cytometry; assay type: functional
BGC-823 [15] = assay: Induction of apoptosis in human BGC823 cells at 20 uM after 36 hrs by flow cytometry; assay type: functional
BGC-823 [16] = assay: Induction of apoptosis in human BGC823 cells at 20 uM after 48 hrs by flow cytometry; assay type: functional

Structure (SMILES)	inhibition of growth at 5 µM (BGC-823 [1])	inhibition of growth at 10 µM (BGC-823 [2])	inhibition of growth at 50 µM (BGC-823 [3])	inhibition of growth at 100 µM (BGC-823 [4])	further results
CCCCCCCCCCCCCCCCCCCCCCCCCCCCC [NONACOSANE]	-0.9%	-5.2%	-5.6%	-6.6%	–
C[C@@H]1O[C@@H](Oc2c(-c3ccc(O)c(O)c3)oc3cc(O)cc(O)c3c2=O)C(O)[C@H](O)C1O (single isomer, unassigned) [QUERCITRIN]	0.2%	3.8%	5.2%	10.6%	–
COc1c(O)cc2c(c1O)[C@@H]1O[C@H](CO)[C@@H](O)[C@H](O)[C@H]1OC2=O [BERGENIN]	-0.8%	2.2%	6.1%	10.8%	–
O=c1c(O)c(-c2ccc(O)c(O)c2)oc2cc(O)cc(O)c12 [QUERCETIN]	7.5%	11%	22.4%	39.3%	Activity (BGC-823 [5]): Active; Activity (BGC-823 [6]): Active; Activity (BGC-823 [7]): Active; Activity (BGC-823 [8]): Active; Activity (BGC-823 [9]): 5.02%; Activity (BGC-823 [10]): 11.82%; Activity (BGC-823 [11]): 10.19%; Activity (BGC-823 [12]): 10.23%
CCCCCCCCCCCCCCCCCCCCCCCCCCCCCCC [HENTRIACONTANE]	4.5%	3.9%	7%	10.1%	–
O=C(O)c1cc(O)c(O)c(O)c1 [GALLIC ACID]	6.7%	10.2%	16.7%	22.5%	–
O=c1c(O[C@@H]2O[C@H](CO)C(O)[C@H](O)[C@H]2O)c(-c2ccc(O)c(O)c2)oc2cc(O)cc(O)c12 (single isomer, unassigned) [ISOQUERCETIN]	1.5%	8.4%	9.2%	12.1%	–
CC[C@@]1(O)C(=O)OCc2c1cc1n(c2=O)Cc2cc3cc(O)ccc3nc2-1 [HYDROXYCAMPTOTHECIN]	–	–	–	–	Activity (BGC-823 [13]): 3.72%; Activity (BGC-823 [14]): 4.78%; Activity (BGC-823 [15]): 13.2%; Activity (BGC-823 [16]): 6.47%
CC[C@H](CC[C@@H](C)[C@H]1CC[C@H]2[C@@H]3CC=C4C[C@@H](O)CC[C@]4(C)[C@H]3CC[C@]12C)C(C)C [BETA-SITOSTEROL]	0.4%	8.8%	15.6%	20.4%	–

Source: ChEMBL document CHEMBL1141580, “Studies on the chemical constituents and anticancer activity of Saxifraga stolonifera (L) Meeb” (2008)
